# Source: patent US12643887B2, “Heterocyclic derivatives with cardiomyocyte proliferation activity for treatment of heart diseases” (Tongji University, priority 2019, dated 2026)
# How the values were obtained:
# [1] = tested on: Neonatal Rat Ventricular Myocytes (NRVMs); assay: Myocyte proliferation assay (EdU assay) in neonatal rat ventricular myocytes; format: cell-based; conditions: growth relative to blank myocyte growth without compound added; for Avg 1 uM (average myocyte proliferation): compound 1 uM; for Avg 3 uM (average myocyte proliferation): compound 3 uM; for Avg 10 uM (average myocyte proliferation): compound 10 uM
# Protocol: 1. Isolation of and Culture Neonatal Rat Ventricular Myocytes (NRVMs)
# Ventricles from neonatal rats were separated from the atria, cut into small pieces (about 2×2 mm^2) and then dissociated in Ca2+-free HBSS containing 0.125 mg ml-1 trypsin (Gibco), 10 μg ml-1 DNase II (Sigma) and 0.1 mg ml-1 collagenase type IV (Sigma). The digestion was carried out under constant stirring at 37° C. for 5 min. The supernatant was collected with FBS (Gibco) after each digestion period. After digestion, the collected supernatant was centrifuged at 1000 g for 10 min at room temperature, and then cell pellets were resuspended in DMEM (Gibco) supplemented with 10% FBS and with 100 uM 5-bromo-2′-deoxyuridine (Sigma). The resuspended cells were passed through a cell strainer ([…], BD Falcon) and seeded onto 100-mm plastic dishes for 2 h at 37° C. in a 5% CO2 to remove fibroblasts, the supernatant was then collected and plated onto 1% gelatin (Sigma)-coated dishes. 24 h after the seeding, the medium was changed to DMEM (Gibco) containing 2% FBS (Gibco), 1% insulin-transferrin-selenium (ITS; Gibco), 1% Penicillin-Streptomycin (Gibco). After 24 hours of low serum culture, remove the medium with DMEM (Gibco) containing 6% FBS (Gibco), 1% insulin-transferrin-selenium (ITS; Gibco), 1% Penicillin-Streptomycin (Gibco), different concentrations of compounds (the compounds were pre-diluted in the medium and the drug concentration was 10 uM, 3 uM, 1 uM, fully mixed). After 36 h add Edu substrate (Invitrogen) according to the manufacturer's guidelines, and then after 12 h cell can be used.
# • 2.1. Immobilization: Remove the medium and fix the cells with […] in 200 ul (whichever is covered) for 15 min and wash the cells twice with 500 ul of PBS for 5 min each time. • 2.2. Broken membrane: Add 200 ul of 0.3% Triton-X 100 (diluted in PBS) to each well, incubate for 10-15 min at room temperature (the time should not be too long), and wash the cells twice with 500 ul of PBS for 5 min each time. • 2.3. Blocking: Add 200 ul of 10% normal goat serum (diluted with 0.1% PBST) to each well, incubate for 1 h at room temperature, and wash twice with 500 ul of 0.1% PBST for 5 min each time. • 2.4. Primary antibody: dilute the primary antibody (abcam, ab8295) to blocking solution at a ratio of 1:200, add 100 ul per well, incubate for 1 h at room temperature (may be slightly longer than 2-3 h), wash the cells twice with 500 ul 0.1% PBST for 5 min each time. • 2.5. Secondary antibody: Dilute the fluorescently labeled secondary antibody (abcam, ab150117) into blocking solution at a ratio of 1:200, add 100 ul per well, incubate for 1 h at room temperature (the time should not be too long), wash the cells twice with 0.1% PBST for 5 min each time, pay attention to the whole process. Protected from light. • 2.6. Edu staining (Invitrogen C10338) • 2.6.1 Prepare Click-iT® reaction cocktail according to Table 3. It was important to add the ingredients in the order listed in the table; otherwise, the reaction would not proceed optimally. Use the Click-iT® reaction cocktail within 15 minutes of preparation.
# • 2.6.2 Add 0.1 mL of Click-iT® reaction cocktail to each well containing a coverslip. Rock the plate briefly to ensure that the reaction cocktail is distributed evenly over the coverslip. • 2.6.3 Incubate the plate for 30 minutes at room temperature, protected from light. • 2.6.4 Remove the reaction cocktail, then wash the cells twice with 0.1% PBST for 5 min each time. • 2.7. DAPI staining: DAPI stain was diluted to PBS at a ratio of 1:1000, 100 ul per well, incubated for 30 min at room temperature, and the cells were washed twice with PBS for 5 min each. 3. Data Analysis
# We used Molecular Devices' Image Xpress Micro Confocal for high-throughput photo and data analysis.
# human DYRK1A = biological target: T1, human DYRK1A (Homo sapiens, UniProt Q13627); assay: DYRK1A enzyme assay (ADP-Glo); format: biochemical; conditions: ADP-Glo, ATP 60 μM; read-out: DYRK1A IC50
# T1 construct: Recombinant full-length DYRK1A (expressed in E. Coli cells with an N-terminal GST tag); GST (N); purchased SignalChem D09-10G; host or cells: E. coli
# Protocol: The ability of compounds to inhibit human DYRK1A kinase activities was determined using a commercially available ADP-Glo™ Kinase Assay kit (Promega, Cat #V9102) according to the manufacturer's protocol.
# Recombinant full-length DYRK1A (expressed in E. Coli cells with an N-terminal GST tag) was purchased from SignalChem (Cat #D09-10G). The DYRK substrate peptide (DYRKtide, sequence: […]) was purchased from SignalChem (Cat #D96-58). This assay, run in a 384-well plate format, is a generic method for measuring kinase activities using an ADP-Glo Kinase Assay Kit. The basic assay procedure involves two steps: (1) Enzymatic step: inhibitors are incubated with the kinase and then ATP (included in the ADP-Glo Kinase Assay Kit) and the DYRKtide are added to start the enzymatic reaction; (2) Detection step: after the kinase reaction, first ADP-Glo™ Reagent is added to terminate the kinase reaction and deplete the remaining ATP. Second, the Kinase Detection Reagent is added to simultaneously convert ADP to ATP and allow the newly synthesized ATP to be measured using a luciferase/luciferin reaction. The light generated is measured using a luminometer.
# Briefly, DYRK1A (3 nM) in the enzymatic buffer solutions (40 mM Tris, pH 7.5, 20 mM MgCl2, 0.1 mg/ml BSA, 50 μM DTT) were mixed with various concentrations of inhibitors (dissolved in 100% DMSO). These solutions were incubated for 30 minutes at 25° C., and subsequently a mixture of substrate peptide and ATP was added with the final peptide and ATP concentrations at 20 μM and 60 μM, respectively. The final reaction mixture of enzyme-substrate-ATP-compound was incubated for 60 minutes at 25° C.
# Afterwards ADP-Glo™ Reagent was added and the mixture was incubated at 25° C. for 60 minutes. Then Kinase Detection Reagent was added and the final mixture was incubated at 25° C. for 60 minutes. The luminescence signal of the final solution was measured on an Envision instrument (PerkinElmer). The percent (%) inhibition at each concentration of a compound is calculated relative to the luminescence signal in the Max and Min control wells contained within each assay plate. […] The concentrations and percent inhibition values for a test compound are plotted and the concentration of the compound required to achieve 50% inhibition (IC50) is determined with a four-parameter logistic dose response equation.
SMILES,Avg 1 uM (average myocyte proliferation) [1],Avg 3 uM (average myocyte proliferation) [1],Avg 10 uM (average myocyte proliferation) [1],IC50 (human DYRK1A)
"CN(C1=N/C(=C\c2ccc3c(c2)OCO3)C(=O)N1)c1ccccc1 [Example 1, (Z)-5-(benzo[d][1,3]dioxol-5-ylmethylene)-2-(methyl(phenyl)amino)-3,5-dihydro-4H-imidazol-4-one]",* (<10% growth relative to blank myocyte growth without compound added.),*** (>50%),** (10%-50%),0.1 to 1 µM
"O=C1/C(=C/c2ccc3c(c2)OCO3)N=C(N(Cc2ccccc2)c2ccccc2)N1Cc1ccccc1 [Example 2, (Z)-5-(benzo[d][1,3]dioxol-5-ylmethylene)-3-benzyl-2-(benzyl(phenyl)amino)-3,5-dihydro-4H-imidazol-4-one]",* (<10% growth relative to blank myocyte growth without compound added.),* (<10% growth relative to blank myocyte growth without compound added.),*** (>50%),1 to 10 µM
"CN1C(=O)/C(=C/c2ccc3c(c2)OCO3)N=C1N(C)c1ccccc1 [Example 3, (Z)-5-(benzo[d][1,3]dioxol-5-ylmethylene)-3-methyl-2-(methyl(phenyl)amino)-3,5-dihydro-4H-imidazol-4-one]",* (<10% growth relative to blank myocyte growth without compound added.),* (<10% growth relative to blank myocyte growth without compound added.),* (<10% growth relative to blank myocyte growth without compound added.),1 to 10 µM
"O=C1NC(Nc2ccccc2)=N/C1=C\c1ccc2ncsc2c1 [Example 6, (Z)-5-(benzo[d]thiazol-6-ylmethylene)-2-(phenylamino)-3,5-dihydro-4H-imidazol-4-one]",*** (>50%),** (10%-50%),* (<10% growth relative to blank myocyte growth without compound added.),
"CN(C1=N/C(=C\c2ccc3ncsc3c2)C(=O)N1)c1ccccc1 [Example 7, (Z)-5-(benzo[d]thiazol-6-ylmethylene)-2-(methyl(phenyl)amino)-3,5-dihydro-4H-imidazol-4-one]",* (<10% growth relative to blank myocyte growth without compound added.),** (10%-50%),* (<10% growth relative to blank myocyte growth without compound added.),0.1 to 1 µM
"CN(C1=N/C(=C\c2ccc3c(c2)OCCO3)C(=O)N1)c1ccccc1 [Example 8, (Z)-5-((2,3-dihydrobenzo[b][1,4]dioxin-6-yl)methylene)-2-(methyl(phenyl)amino)-3,5-dihydro-4H-imidazol-4-one]",** (10%-50%),* (<10% growth relative to blank myocyte growth without compound added.),** (10%-50%),1 to 10 µM
"COc1ccc(NC2=N/C(=C\c3ccc4ncsc4c3)C(=O)N2)cc1 [Example 25, (Z)-5-(benzo[d]thiazol-6-ylmethylene)-2-((4-methoxyphenyl)amino)-3,5-dihydro-4H-imidazol-4-one]",** (10%-50%),* (<10% growth relative to blank myocyte growth without compound added.),* (<10% growth relative to blank myocyte growth without compound added.),
"O=C1NC(NCc2ccccc2)=N/C1=C\c1ccc2ncsc2c1 [Example 31, (Z)-5-(benzo[d]thiazol-6-ylmethylene)-2-(benzylamino)-3,5-dihydro-4H-imidazol-4-one]",** (10%-50%),** (10%-50%),,
"O=C1NC(NCC2CC2)=N/C1=C\c1ccc2ncsc2c1 [Example 34, (Z)-5-(benzo[d]thiazol-6-ylmethylene)-2-((cyclopropylmethyl)amino)-3,5-dihydro-4H-imidazol-4-one]",** (10%-50%),*** (>50%),,
"O=C1NC(Nc2ccc(Cl)cc2)=N/C1=C\c1ccc2ncsc2c1 [Example 40, (Z)-5-(benzo[d]thiazol-6-ylmethylene)-2-((4-chlorophenyl)amino)-3,5-dihydro-4H-imidazol-4-one]",*** (>50%),*** (>50%),*** (>50%),
"O=C1NC(Nc2ccc3ncsc3c2)=N/C1=C\c1ccc2ncsc2c1 [Example 48, (Z)-2-(benzo[d]thiazol-6-ylamino)-5-(benzo[d]thiazol-6-ylmethylene)-3,5-dihydro-4H-imidazol-4-one]",*** (>50%),*** (>50%),*** (>50%),
"O=C1NC(Nc2ccc3ncsc3c2)=N/C1=C\c1ccc2scnc2c1 [Example 57, (Z)-5-(benzo[d]thiazol-5-ylmethylene)-2-(benzo[d]thiazol-6-ylamino)-3,5-dihydro-4H-imidazol-4-one]",* (<10% growth relative to blank myocyte growth without compound added.),* (<10% growth relative to blank myocyte growth without compound added.),,
"O=C1NC(Nc2ccc3nccnc3c2)=N/C1=C\c1ccc2ncsc2c1 [Example 82, (Z)-5-(benzo[d]thiazol-6-ylmethylene)-2-(quinoxalin-6-ylamino)-3,5-dihydro-4H-imidazol-4-one]",** (10%-50%),** (10%-50%),,
